Results reported in patent US20250092014A1, “COMPOUNDS AND METHODS OF ACTIVATING LIPOPROTEIN LIPASE” (Metrea Biosciences, Inc., priority 2021, published 2025).
Entries after “also recorded” stand apart in the source; their conditions may differ.

What was measured:
Human LPL [1] = molecular target: T1, Human LPL (Homo sapiens, UniProt P06858); experiment: Cellular lipolysis assay, Angptl4 protection, CHO pgsA-745/GPIHBP1 cells; type: cell-based; details: 30 μM, 10 μM, 3 μM, 1 M and 0.3 μM doses, compared to 50 nM LPL with 30 nM Angptl4
T1 construct: purchased R&D Systems; host or cells: LPL added from outside to CHO pgsA-745 cells stably transfected with human GPIHBP1-HA
T1 sequence (P06858 28-475): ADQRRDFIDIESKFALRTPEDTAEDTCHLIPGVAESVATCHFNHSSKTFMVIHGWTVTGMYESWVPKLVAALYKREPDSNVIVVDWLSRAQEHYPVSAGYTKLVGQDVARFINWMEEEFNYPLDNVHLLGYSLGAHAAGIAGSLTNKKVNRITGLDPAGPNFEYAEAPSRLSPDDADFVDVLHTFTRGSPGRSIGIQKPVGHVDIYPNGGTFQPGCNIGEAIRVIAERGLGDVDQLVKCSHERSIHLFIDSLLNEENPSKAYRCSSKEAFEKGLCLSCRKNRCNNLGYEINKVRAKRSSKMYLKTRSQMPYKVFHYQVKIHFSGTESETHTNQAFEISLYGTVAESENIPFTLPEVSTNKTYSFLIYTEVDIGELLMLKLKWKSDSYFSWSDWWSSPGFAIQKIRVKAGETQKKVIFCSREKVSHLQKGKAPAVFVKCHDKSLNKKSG
T1 sequence (Q8IV16 21-151 partner limits assumed): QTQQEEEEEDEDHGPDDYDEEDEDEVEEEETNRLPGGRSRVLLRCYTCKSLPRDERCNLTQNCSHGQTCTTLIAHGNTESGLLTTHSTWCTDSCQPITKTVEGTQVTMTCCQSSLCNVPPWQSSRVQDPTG
Procedure: (§1) Chinese hamster ovary (CHO) mutant pgsA-745 cells were grown in F-12K media (ATCC) with 10% FBS and penicillin/streptomycin. One day prior to transfection 300,000 cells were seeded per well in a 6 well plate and cultured overnight. 2 μg of human GPIHBPI in pcDNA3.1(+)—C-HA (Genscript) were transfected using Lipofectamine 3000 (Invitrogen) and the cells were cultured for 24 hours. Cells were split into selection media (600 μg/ml G418 (Gibco)) and a stable pool was established and verified by qPCR and western blotting using anti-HA (Cell Signaling) and GPIHBP1 (Santa Cruz) antibodies (data not shown).
(§2) CHO pgsA-745 cells overexpressing GPIHBPI were seeded at 200,000 cells per well in 24 well plates and cultured overnight. Media was replaced with serum-free F-12K media containing 0.1 U/ml heparin and cultured for 2 hours to remove surface bound endogenous LPL, then cells were washed with PBS. Human LPL (R&D Systems) was diluted to 50 nM in serum free media and added for 30 minutes gently shaking at room temperature, then cells were washed with PBS to remove unbound LPL. Test compounds were diluted in serum free media and added to cells for 20 minutes at room temperature gently shaking, followed by 10× ANGPTL4 (30 nM final concentration) for another 20 minutes. Test compound and ANGPTL4 were removed and cells washed with PBS. […] Media was removed and fluorescence read at Ex482/Em515.

Human LPL [2] = molecular target: T1, Human LPL; experiment: Cellular lipolysis assay, intrinsic activation (Angptl4 omitted), CHO pgsA-745/GPIHBP1 cells; type: cell-based; details: 30 μM, 10 PM, 3 μM and 1 μM doses, compared to 50 nM LPL alone
Procedure: as §1
as §2, with “Test compounds were diluted in serum free media and added to cells for 20 minutes at room temperature gently shaking, followed by 10× ANGPTL4 (30 nM final concentration) for another 20 minutes.” left out

Compound: O=C(O)Cc1cc(F)ccc1NC(=O)c1ccc(N2CCCCC2)c(NC(=O)c2nn(CC(F)(F)F)c3ccccc23)c1 [Compound 158, 2-(5-fluoro-2-(4-(piperidin-1-yl)-3-(1-(2,2,2-trifluoroethyl)-1H-indazole-3-carboxamido)benzamido)phenyl)acetic acid]
- lipolysis activity (EnzChek substrate fluorescence), protection of LPL from inactivation by ANGPTL4 (Human LPL [1]): protective action; also recorded: significantly increased lipolysis activity
- lipolysis activity (EnzChek substrate fluorescence), intrinsic activation of LPL (Human LPL [2]): intrinsic activation; also recorded: significantly increased lipolysis activity
